Reference: patent publication US20250213647A1, “CHEMOKINE RECEPTORS AND ALPHA1 ADRENERGIC RECEPTORS/VASOPRESSIN RECEPTORS 1A HETEROMERS AS DRUG TARGETS FOR DISEASE” (UNIVERSITY OF SOUTH FLORIDA, priority 2022, published 2025)

Tests used:
[1] = test system: α1B/D-AR, CCR1, CCR2, CXCR4, CCR8; experiment: Proximity ligation assay, individual receptors on THP-1 cells; details: 10 μM, 30 min at 37° C., FIG. 6; for cell surface expression of α1B/D-AR, CCR1, CCR2 and CXCR4 (PLA signals): vs vehicle
[2] = test system: leukocyte infiltration into dorsal air pouches; experiment: Murine air pouch model, leukocyte infiltration; assay type: in vivo, C57BL/6 mice; details: co-injected into the air pouch; phenylephrine 10-100 mg/kg, phentolamine 5-50 mg/kg; 24 h; FIG. 9B-D
Protocol: All procedures were performed according to the National Institutes of Health Guidelines for Use of Laboratory Animals and were approved by the Institutional Animal Care and Use Committee of the University of South Florida (IS00010570). Male and female C57BL/6 mice (20-25 g) were obtained from Envigo (Indianapolis, IN). Six days prior to the start of the experiments, mice were anesthetized with 1.7% sevoflurane, the dorsal cervical/thoracic region was shaved, disinfected with 70% ethanol and 3 mL of sterile air were injected subcutaneously (s.c.) to create an air pouch. […] 5 ml ice cold lavage fluid was injected into each air pouch using a syringe with a 23-G, 1-inch needle, the air pouch was gently massaged for 60 seconds, the lavage fluid was harvested using the same syringe and needle and the recovered volume was recorded. […] Erythrocytes in the cell pellets were lysed with Invitrogen 1× RBC lysis buffer and the harvested air pouch cells analyzed by flow cytometry.
Harvested air pouch cells were incubated with APC-conjugated anti-mouse CD45 or APC-conjugated immunoglobulin G 2B (IgG2B; isotype control) for 145 min in the dark at room temperature. […] Cells were then washed again, resuspended in PBS, and the cell-associated light scatter and fluorescence were determined with a LSRII instrument (Becton Dickinson). […]

CXCR4 [3] = experiment: Chemotaxis assay, THP-1 cells toward CXCL12 (CXCR4-mediated); assay type: cell-based, human; details: CXCL12 100 nM, mean±SE, read-out: IC50 for inhibition of CXCR4-mediated chemotaxis
Protocol: (§1) Cell migration was measured employing the Neuroprobe (Gaithersburg, MD, USA) ChemoTx® Disposable Chemotaxis System. A 96-well Boyden-chamber (30 μL/well, 8 μm pores, 1×10^5 pores/cm^2 pore density) was selected for all chemotaxis experiments. Bottom wells of the Boyden-chamber were loaded with 30 μL of test substances at various concentrations. Top wells of the membrane were loaded with 25 μL of THP-1 cells, THP-1_ADRA1B^KO, wild type THP-1 cells after clonal expansion (=control for THP-1_ADRA1B^KO) or freshly isolated monocytes (200 cells/μL). THP-1 cells were suspended in depleted RPMI1640 (0.5% HyClone™ fetal bovine serum, Sigma); Freshly isolated monocytes were suspended in RPMI1640 (0.5% human platelet poor plasma, Sigma). After 3 hours, transmigrated cells were counted utilizing the Cytation 1 plate reader (BioTek) by direct imaging in high contrast bright field (4×) and post-imaging particle analyses with Gen5 (v3.05) Imaging & Microscopy Software (BioTek). The chemotactic index (CI) was calculated as the ratio of cells that transmigrated in the presence versus the absence of the test solutions.

[4] = test system: heteromeric complexes between α1B/D-ARs and CCR1, CCR2, CXCR4; experiment: Proximity ligation assay, receptor-receptor interactions on THP-1 cells; details: 10 μM, 30 min at 37° C.; FIG. 8
CCR1 [5] = experiment: Chemotaxis assay, THP-1 cells toward CCL23 (CCR1-mediated); assay type: cell-based, human; details: CCL23 10 nM, mean±SE, read-out: IC50 for inhibition of CCR1-mediated chemotaxis
Protocol: as §1

CCR2:α1b-AR heteromers = CCR2:α1b-AR heteromers (Homo sapiens, UniProt P35368+P41597); experiment: BRET assay for β-arrestin recruitment, HEK293T co-expressing CCR2-Rluc, β-arrestin-YFP and α1b-AR; assay type: cell-based; design: expressed in transfected cells; details: CCL2 plus 10 μM ligand; FIG. 5D
Protocol: (§2) β-arrestin recruitment was measured by BRET, as described (Armando, 2014; Berchiche, 2011). In brief, HEK293T cells were plated in a 6-well plate and transfected with 0.1 μg of CCR2-RluII and 1.9 μg β-arrestin-YFP with 0.1 μg pcDNA3.1 or α1b-AR. One day after transfection, cells were re-plated into 96-well poly-L lysine precoated plates. After overnight incubation, cells were replaced with 0.1% glucose/PBS. Coelenterazine H in a final concentration of 5 μM was added to cells and incubated at room temperature for 3 min. […] The BRET changes were calculated by subtracting the BRET signal of untreated cells.

[6] = test system: THP-1 cells (CCR2-mediated Gαi signaling); experiment: Cyclic AMP measurement in forskolin-stimulated THP-1 cells; assay type: cell-based, human; details: forskolin-stimulated THP-1 cells; 1 μM PE, 1 μM PT or 100 nM NE; 15 min at 37° C.; FIG. 4G, 4H
Protocol: Cyclic AMP amounts were measured using the cAMP complete enzyme immunoassay kit, acetylated format (Enzo Life Sciences). 4×10^5 cells were incubated with forskolin/isobutylmethylxanthine (10 μM/0.5 mM final concentrations) in 0.1% BSA/10 mM Hepes-buffered RPMI and treated with CCL2 in the presence or absence of 1 μM PE, 1 μM PT or 100 nM NE at 37° C. for 15 min. The cells were lysed by incubating with 0.1 M HCl at room temperature for 20 min. The cAMP amounts in the lysate supernatant were measured following the manufacturer's instructions.

CCR2 [7] = target: T1, CCR2 (Homo sapiens, UniProt P41597); experiment: BRET assay for β-arrestin recruitment, HEK293T with CCR2-Rluc and β-arrestin-YFP without α1b-AR; assay type: cell-based; details: 10 μM PE, PT or 100 nM INCB3284, FIG. 5C
Protocol: as §2

[8] = test system: CR heteromerization partners of α1B/D-ARs (CCR1, CCR2, CXCR4); experiment: Chemotaxis assay, human monocytes, CR heteromerization partners of α1B/D-ARs taken together; assay type: cell-based; details: FIG. 17B
Protocol: as §1

CCR2 [9] = target: T1, CCR2; experiment: CCR2 internalization in THP-1 cells (flow cytometry); assay type: cell-based; design: host or cells: THP-1; details: 100 nM CCL2 plus 1 μM PE, 0-45 min at 37° C.; FIG. 7A/B
Protocol: To examine receptor internalization in THP-1 cells, cells were incubated with 100 nM CCL2 or with 100 nM CCL2 plus 1 μM PE for 0-45 min at 37° C. Cells were then cooled on ice and washed with 50 mM glycine buffer, pH 2.7, 150 mM NaCl, followed by washing with ice-cold PBS. Cell surface CCR2 was probed with anti-CCR2 and corresponding secondary Alexa 488-conjugated antibodies. Receptor cell surface expression levels are examined by flow cytometry and expressed as the median fluorescence intensity (MFI) in percent of the MFI measured at 0 min (=100%).

CCR1 [10] = experiment: Chemotaxis assay, human monocytes toward CCL23 (CCR1-mediated); assay type: cell-based; details: mean±SE, read-out: IC50 for inhibition of CCR1-mediated chemotaxis
Protocol: as §1

CXCR4 [11] = experiment: Chemotaxis assay, human monocytes toward CXCL12 (CXCR4-mediated); assay type: cell-based; details: mean±SE, read-out: IC50 for inhibition of CXCR4-mediated chemotaxis
Protocol: as §1

CCR8 = experiment: Chemotaxis assay, human monocytes toward CCL1 (CCR8-mediated); assay type: cell-based
Protocol: as §1

CCR2 [12] = target: T1, CCR2; experiment: Chemotaxis assay, human monocytes toward CCL2 (CCR2-mediated); assay type: cell-based; design: host or cells: THP-1; details: mean±SE, read-out: IC50 for inhibition of CCR2-mediated chemotaxis
Protocol: as §1

T1 sequence (P41597 whole entry): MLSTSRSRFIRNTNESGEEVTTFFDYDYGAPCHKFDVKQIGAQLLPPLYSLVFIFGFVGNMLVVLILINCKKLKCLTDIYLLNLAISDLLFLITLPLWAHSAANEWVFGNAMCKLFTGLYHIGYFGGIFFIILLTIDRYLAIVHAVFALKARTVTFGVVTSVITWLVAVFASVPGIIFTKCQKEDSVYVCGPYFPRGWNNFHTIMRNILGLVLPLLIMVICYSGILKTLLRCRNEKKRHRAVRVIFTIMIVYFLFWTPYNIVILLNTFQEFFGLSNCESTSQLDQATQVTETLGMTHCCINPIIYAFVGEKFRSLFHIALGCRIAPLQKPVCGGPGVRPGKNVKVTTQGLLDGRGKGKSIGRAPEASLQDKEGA
Sequence of CCR2:α1b-AR heteromers (P41597 whole entry): as above
Sequence of CCR2:α1b-AR heteromers (P35368 whole entry): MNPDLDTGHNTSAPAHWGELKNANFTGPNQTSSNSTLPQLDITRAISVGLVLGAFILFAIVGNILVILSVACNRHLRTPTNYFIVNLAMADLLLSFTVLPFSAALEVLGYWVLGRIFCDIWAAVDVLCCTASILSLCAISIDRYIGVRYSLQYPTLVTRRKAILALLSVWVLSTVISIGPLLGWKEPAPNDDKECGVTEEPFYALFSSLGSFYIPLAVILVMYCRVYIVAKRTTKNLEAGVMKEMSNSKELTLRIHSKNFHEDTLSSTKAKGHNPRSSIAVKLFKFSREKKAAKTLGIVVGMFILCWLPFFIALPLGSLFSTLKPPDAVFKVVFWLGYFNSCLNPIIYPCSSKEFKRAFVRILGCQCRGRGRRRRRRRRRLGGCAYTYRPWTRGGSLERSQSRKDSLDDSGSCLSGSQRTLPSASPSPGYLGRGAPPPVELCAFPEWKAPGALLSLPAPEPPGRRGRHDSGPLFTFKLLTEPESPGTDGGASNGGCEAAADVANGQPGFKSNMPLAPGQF

| Compound | cell surface expression of α1B/D-AR, CCR1, CCR2 and CXCR4 (PLA signals) [1] | leukocyte infiltration induced by LPS, CCL2 or CXCL12 [2] | IC50 (CXCR4 [3]) [nM] | heteromeric complexes between α1B/D-ARs and their chemokine heteromerization partners (PLA signals) [4] | IC50 (CCR1 [5]) [nM] | Top plateau, β-arrestin recruitment BRET in the presence of the ligand (CCR2:α1b-AR heteromers) | effect on the effects of CCL2 on cAMP production [6] | effect on the CCL2-induced BRET signal (CCR2-Rluc / β-arrestin-YFP) (CCR2 [7]) | expression of CCR8 (PLA signals) [1] | inhibition of chemotaxis mediated via CR heteromerization partners of α1B/D-ARs [8] | CCR2 cell surface expression, CCL2 plus ligand vs CCL2 alone (CCR2 [9]) | IC50 (CCR1 [10]) [nM] | IC50 (CXCR4 [11]) [nM] | CCL1-induced chemotaxis (CCR8) | IC50 (CCR2 [12]) [nM] |
| --- | --- | --- | --- | --- | --- | --- | --- | --- | --- | --- | --- | --- | --- | --- | --- |
| Cc1ccc(N(CC2=NCCN2)c2cccc(O)c2)cc1 [phentolamine] | did not affect | inhibited in a dose-dependent manner | 0.2 ± 0.2 | reduced | 0.03 ± 0.08 | 0.061±0.002 | inhibited the effects of CCL2 on cAMP production | not affected |  |  |  |  |  |  |  |
| CNC[C@H](O)c1cccc(O)c1 [phenylephrine] | reduced | inhibited in a dose-dependent manner | 17 ± 29 | reduced | 5 ± 6.7 |  | inhibited the effects of CCL2 on cAMP production | not affected | not affected | 60-77% | significantly reduced CCR2 expression | 12 ± 8 | 6 ± 3 | not affected | 37 ± 26 |
